Assay results: US20130281313A1, “PROGNOSTIC AND/OR PREDICTIVE BIOMARKERS AND BIOLOGICAL APPLICATIONS THEREOF” (INSTITUT GUSTAVE ROUSSY, priority 2010, published 2013)

Tests used:
Type in all cases: cell-based, human
[1] = test system: A549 cells; assay: Transcriptome studies (mRNA microarrays)
Description: NSCLC A549 cells were treated with 100 μM CDDP, 75 μM C2-CER or 100 μM CdCl2 for 12 h, or with 50 μM CDDP, C2-CER or CdCl2 for 24 h. Thereafter, cells were collected and lysed for RNA extraction of following established procedures {de La Motte Rouge, 2007}. mRNA expression changes were quantified on G4112A 44 k Whole Human Genome Oligo Microarrays (Agilent Technologies, Santa Clara, USA), as previously reported {Castedo, 2006}. mRNA microarrays underwent standardized post-hybridization processing, image acquisition and analysis (see below) {Castedo, 2006}.
Data from microarray experiments were analyzed with the Rosetta Resolver® System (Rosetta Biosoftware, Seattle, USA). The threshold for statistical significance of probe signals (Intensity) was set at p=10^−5. […] For each mRNA, fold change (FC) was then defined as Intensitysample/Intensitycontrol when Intensitysample>Intensitycontrol, or as—(Intensitycontrol/Intensitysample) when Intensitysample<Intensitycontrol. Ratios were calculated as Intensitysample/Intensitycontrol.

[2] = test system: A549 cells; assay: Cytofluorometric assessment of cell death (DiOC6(3)/PI co-staining); details: A549 cells
Description: Unless otherwise specified, chemicals were purchased from Sigma-Aldrich (St. Louis, USA), culture media and supplements for cell culture from Gibco-Invitrogen (Carlsbad, USA) and plasticware from Corning (Corning, USA). […] Orlistat (Xenical®) was obtained from Roche (Basel, Switzerland). […] Undissolved material was removed by two sequential rounds of centrifugation at 12,000 G (5 min, room temperature, RT), supernatants were collected and stored at −80° C. under protection from light until use. In low-throughput experiments, all cell lines were treated with 2.5 mM pyridoxine (PN), exception made for A549 cells that received 5 mM PN.
To avoid depleting the siRNA library of selected sequences, siRNAs for validation experiments were purchased as custom molecules from Sigma-Aldrich. For low-throughput experiments, (see below for the transfection protocols employed in the siRNA screen), siRNA were transfected in A549 cells with Oligofectamine™ reagent (Invitrogen), following the manufacturer's instructions. Transfection with a non-targeting siRNA (siUNR) was employed as a negative control condition. Forty-eight hours after transfection, siRNA-mediated target downregulation was assessed by immunoblotting (see below).
All cytofluorometric determinations were carried out a FACSCalibur or a FACScan cytofluorometer (BD Biosciences, San Jose, USA) equipped with a 70 μm nozzle.
(§1) First line statistical analysis of cytofluorometric results was performed by using the CellQuest™ software (BD Biosciences), by gating on the events characterized by normal forward scatter and side scatter parameters. Apoptosis- and cell cycle-related data were further analyzed with Microsoft Excel (Microsoft Co., Redmond, USA) and statistical significance was assessed by means of two-tailed Student's t test (p<0.05).

[3] = test system: A549 cells; assay: Cell cycle distribution (PI staining, cytofluorometry); details: 10 μM CDDP alone or with PN and/or NAC
Description: To measure apoptosis-related parameters, living cells were labeled for 30 min at +37° C. with 40 nM 3,3′dihexyloxalocarbocyanine iodide (DiOC6(3), from Molecular Probes-Invitrogen, Eugene, USA), which quantifies the mitochondrial transmembrane potential (Δψm), plus 1 μg/mL propidium iodide (PI), which only accumulates in cells with ruptured plasma membrane {Galluzzi, 2009; Galluzzi, 2008; Galluzzi, 2007}. To assess cell cycle distribution, cells were collected, fixed by gentle vortexing in ice-cold 80% (v/v) ethanol (Carlo Erba Reagents, Milano, Italy) and stained with 50 μg/mL PI in 0.1% (w/v) D-glucose in PBS supplemented with 1 μg/mL (w/v) RNAse A {Mondragon, 2009; Mouhamad, 2007}. All cytofluorometric determinations were carried out a FACSCalibur or a FACScan cytofluorometer (BD Biosciences, San Jose, USA) equipped with a 70 μm nozzle.
as §1

[4] = 12 h, 100 μM CDDP, 75 μM C2-CER or 100 μM CdCl2, vs untreated cells
[5] = 24 h, 50 μM CDDP, C2-CER or CdCl2, vs untreated cells

In the case of `CCCCCCCCCCCCC/C=C/[C@@H](O)[C@H](CO)NC(C)=O` [C2-CER, C2-ceramide], the “Fold change, ADAR (NM_001111) transcript” value [1, 4] is reported as “n.s”, the “Fold change, ALDH7AT (NM_001182) transcript” value [1, 4] is reported as −1.85 and the “Fold change, CD151 (NM_004357) transcript” value [1, 4] is reported as “n.s”. For the same compound, the “Fold change, CLIC1 (NM_001288) transcript” value [1, 4] was “n.s”, the “Fold change, COMMO9 (NM_014186) transcript” value [1, 4] was “n.s” and the “Fold change, COX5B (NM_001802) transcript” value [1, 4] was −1.62. The “Fold change, COX7C (NM_001867) transcript” value [1, 4] was −1.33, the “Fold change, DHRSX (NM_145177) transcript” value [1, 4] was “n.s” and the “Fold change, EBP (NM_006579) transcript” value [1, 4] was −2.80. For the same compound, the “Fold change, EEF2 (NM_001901) transcript” value [1, 4] was 2.31, the “Fold change, FDXK (NM_003681) transcript” value [1, 4] was −1.89 and the “Fold change, FN3KRP (NM_024619) transcript” value [1, 4] was −1.35. The “Fold change, HDLBP (NM_005336) transcript” value [1, 4] was 1.69, the “Fold change, HGD (NM_000187) transcript” value [1, 4] was −2.15 and the “Fold change, IL6R (NM_000565) transcript” value [1, 4] was 2.94. For the same compound, the “Fold change, KHSRP (NM_003685) transcript” value [1, 4] was −2.29, the “Fold change, LOC389727 (NM_372092) transcript” value [1, 4] was “n.s” and the “Fold change, MAT2A (NM_005911) transcript” value [1, 4] was −3.47. For the same compound, the “Fold change, MOL1 (NM_021960) transcript” value [1, 4] was −1.35, the “Fold change, MPP6 (NM_016447) transcript” value [1, 4] was “n.s” and the “Fold change, OSTCL (NM_145303) transcript” value [1, 4] was 2.25. For the same compound, the “Fold change, P5MC5 (NM_002805) transcript” value [1, 4] was −2.20, the “Fold change, PLK1S1 (NM_018474) transcript” value [1, 4] was 1.99 and the “Fold change, PPM1J (NM_005167) transcript” value [1, 4] was “n.s”. For the same compound, the “Fold change, RNF26 (NM_032015) transcript” value [1, 4] was “n.s”, the “Fold change, RRAD (NM_004185) transcript” value [1, 4] was “n.s” and the “Fold change, SEMA3G (NM_000379) transcript” value [1, 4] was “n.s”. The “Fold change, SLC22A16AS (NM_007105) transcript” value [1, 4] was −1.40, the “Fold change, SOCS6 (NM_004232) transcript” value [1, 4] was “n.s” and the “Fold change, TMED1 (NM_006858) transcript” value [1, 4] was “n.s”. The “Fold change, TRIP4 (NM_016213) transcript” value [1, 4] was 1.83, the “Fold change, UBE2L3 (NM_003347) transcript” value [1, 4] was −1.48 and the “Fold change, UBE21 (NM_014176) transcript” value [1, 4] was −2.92. The “Fold change, W282 (NM_018029) transcript” value [1, 4] was “n.s”, the “Fold change, ADAR (NM_001111) transcript” value [1, 5] was −1.45 and the “Fold change, ALDH7AT (NM_001182) transcript” value [1, 5] was −1.98. The “Fold change, CD151 (NM_004357) transcript” value [1, 5] was “n.s”, the “Fold change, CLIC1 (NM_001288) transcript” value [1, 5] was “n.s” and the “Fold change, COMMO9 (NM_014186) transcript” value [1, 5] was “n.s”. For the same compound, the “Fold change, COX5B (NM_001802) transcript” value [1, 5] was −1.61, the “Fold change, COX7C (NM_001867) transcript” value [1, 5] was “n.s” and the “Fold change, DHRSX (NM_145177) transcript” value [1, 5] was “n.s”. For the same compound, the “Fold change, EBP (NM_006579) transcript” value [1, 5] was −3.16, the “Fold change, EEF2 (NM_001901) transcript” value [1, 5] was 2.62 and the “Fold change, FDXK (NM_003681) transcript” value [1, 5] was −1.91. The “Fold change, FN3KRP (NM_024619) transcript” value [1, 5] was −1.67, the “Fold change, HDLBP (NM_005336) transcript” value [1, 5] was 1.99 and the “Fold change, HGD (NM_000187) transcript” value [1, 5] was −4.23. For the same compound, the “Fold change, IL6R (NM_000565) transcript” value [1, 5] was 3.52, the “Fold change, KHSRP (NM_003685) transcript” value [1, 5] was −2.23 and the “Fold change, LOC389727 (NM_372092) transcript” value [1, 5] was “n.s”. For the same compound, the “Fold change, MAT2A (NM_005911) transcript” value [1, 5] was −2.96, the “Fold change, MOL1 (NM_021960) transcript” value [1, 5] was −1.58 and the “Fold change, MPP6 (NM_016447) transcript” value [1, 5] was “n.s”. The “Fold change, OSTCL (NM_145303) transcript” value [1, 5] was 3.08, the “Fold change, P5MC5 (NM_002805) transcript” value [1, 5] was −2.27 and the “Fold change, PLK1S1 (NM_018474) transcript” value [1, 5] was 1.93. For the same compound, the “Fold change, PPM1J (NM_005167) transcript” value [1, 5] was “n.s”, the “Fold change, RNF26 (NM_032015) transcript” value [1, 5] was −2.11 and the “Fold change, RRAD (NM_004185) transcript” value [1, 5] was 1.55. The “Fold change, SEMA3G (NM_000379) transcript” value [1, 5] was “n.s”, the “Fold change, SLC22A16AS (NM_007105) transcript” value [1, 5] was −1.60 and the “Fold change, SOCS6 (NM_004232) transcript” value [1, 5] was “n.s”. For the same compound, the “Fold change, TMED1 (NM_006858) transcript” value [1, 5] was “n.s”, the “Fold change, TRIP4 (NM_016213) transcript” value [1, 5] was 1.65 and the “Fold change, UBE2L3 (NM_003347) transcript” value [1, 5] was −1.47. The “Fold change, UBE21 (NM_014176) transcript” value [1, 5] was −4.38 and the “Fold change, W282 (NM_018029) transcript” value [1, 5] was “n.s”.
`Cc1ccc(-c2cn3c4c(sc3n2)CCCC4)cc1` [cyclic pifithrin-α] was tested, and the “protection against CDDP, COX inhibition with sodium azide combined with TP53 inhibition with cyclic pifithrin-α” value ([2]; followed by CDDP, DiOC6(3)/PI co-staining) was “synergistic protection against CDDP”.
`CC(=O)N[C@@H](CS)C(=O)O` [NAC, N-acetylcysteine] was tested, and the “apoptosis-inducing effect of CDDP (DiOC6(3)/PI co-staining or DNA loss, sub-G1 peak)” value ([2]; CDDP irrespective of the presence of PN) was “blocked the apoptosis-inducing effect of CDDP” and the “cell cycle arrest induced by CDDP” value [3] was “failed to reverse the cell cycle arrest induced by CDDP”.
